Earlier results as cited in patent publication US6194433A, “Sexual dysfunction in females” (Cutler; Neal R., priority 1998, dated 2001).

What was measured:
[1] = not given; remark: listed apart in the source
[2] = system: phosphodiesterase III; conditions: Gristwood et al., Br. J. Pharmacol. 105:985 (1992)
[3] = system: phosphodiesterase; conditions: Frodsham et al., Eur. J. Pharmacol. 211:383 (1992)
[4] = Kelso et al., J Cardiovasc. Pharmacol. 25:376 (1995)
[5] = Perreault et al., Br. J Pharmacol. 106:511 (1992)
[6] = following coronary artery ligation; Jones et al., Br. J. Pharmacol. 108:1111 (1993)

Structure (SMILES) | time of peak metabolite plasma levels (following oral dosage of flosequinan) | time of peak plasma concentrations of flosequinan (following oral administration) [h] | mean absolute bioavailability (oral, single dose of fifty milligrams) [%] | solubility in organic solvents ([1]; many organic solvents) | water solubility ([1]; water) | inhibition of phosphodiesterase III [2] | phosphodiesterase inhibition as relevant to efficacy in heart failure [3] | usefulness in the treatment of heart failure [4] | effect in patients with end-stage failure [5] | effect on mortality or arrhythmias [6]
Cn1cc(S(C)(=O)=O)c(=O)c2ccc(F)cc21 [metabolite] | about seven | – | – | – | – | – | – | – | – | –
Cn1cc([S+](C)[O-])c(=O)c2ccc(F)cc21 (stereo not shown) [flosequinan, 7-fluoro-1-methyl-3-methylsulphinyl-4-quinolone] | – | 1 to 2 | 72 | soluble in many organic solvents | water soluble | selective inhibitor of phosphodiesterase III | questionable | useful to some degree | little effect | does not affect mortality or arrhythmias
